Results reported in paper PMC3623016 (Journal of biomolecular screening, 2012).
Where “and” joins values, the source holds several entries; their conditions need not be identical. Identical values can stand only once.

Key:
Ig-MXP3 cells = assay: Direct cytotoxicity; format: cell-based
ABCG2 = molecular target: T1, ABCG2 (Homo sapiens, UniProt Q9UNQ0); assay: JC-1 efflux inhibition dose-response, flow cytometry, Ig-MXP3 cells; format: cell-based; details: quotient of average ABCB1 IC50 and average ABCG2 IC50, JC-1 efflux assay
T1 sequence (Q9UNQ0 1-655): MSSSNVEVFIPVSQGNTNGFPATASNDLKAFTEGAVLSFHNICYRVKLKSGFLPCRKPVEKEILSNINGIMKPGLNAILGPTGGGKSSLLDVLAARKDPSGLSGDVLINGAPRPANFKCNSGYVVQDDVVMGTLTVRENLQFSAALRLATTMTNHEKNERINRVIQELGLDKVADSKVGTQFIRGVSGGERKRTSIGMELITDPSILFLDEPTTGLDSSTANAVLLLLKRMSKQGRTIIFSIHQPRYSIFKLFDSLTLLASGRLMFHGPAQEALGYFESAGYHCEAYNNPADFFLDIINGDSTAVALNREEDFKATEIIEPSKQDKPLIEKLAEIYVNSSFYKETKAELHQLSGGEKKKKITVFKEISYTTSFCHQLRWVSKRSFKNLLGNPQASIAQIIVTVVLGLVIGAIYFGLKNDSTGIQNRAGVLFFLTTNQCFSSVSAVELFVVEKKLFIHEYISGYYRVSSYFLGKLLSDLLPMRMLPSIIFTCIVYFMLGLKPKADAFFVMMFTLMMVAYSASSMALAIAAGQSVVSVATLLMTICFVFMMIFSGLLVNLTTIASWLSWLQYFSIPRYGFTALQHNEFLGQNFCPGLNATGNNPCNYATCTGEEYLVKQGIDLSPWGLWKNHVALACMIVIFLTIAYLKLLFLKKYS

In the case of `O=C(NCCCN1CCOCC1)c1cnn2c(-c3ccccc3)cc(-c3ccccc3)nc12` [Compound 6, reversan, reference compound], the “ABCB1 TD50” value (Jurkat-DNR cells) was 7.04 µM and the “ABCG2 TD50” value (Ig-MXP3 cells) was >100 µM.

`O=C(c1ccco1)N1CCN(c2cc(-c3ccccc3)nc3cc(-c4cccc(Cl)c4)nn23)CC1` [Compound 8] was tested, and the “∼Fold G2 Selective” value (ABCG2) was 6.4 fold, the “ABCB1 TD50” value (Jurkat-DNR cells) was 6.77 µM and the “ABCG2 TD50” value (Ig-MXP3 cells) was 6.00 µM.

For `Cc1nc2cc(-c3cccc(Cl)c3)nn2c(N2CCN(C(=O)c3ccco3)CC2)c1C` [Compound 9], the “∼Fold G2 Selective” value (ABCG2) was 3.2 fold, the “ABCB1 TD50” value (Jurkat-DNR cells) was >100 µM and the “ABCG2 TD50” value (Ig-MXP3 cells) was 47.40 µM.

`Cc1cc(N2CCN(C(=O)c3ccco3)CC2)n2nc(-c3cccc(Cl)c3)cc2n1` [Compound 10] was tested, and the “∼Fold G2 Selective” value (ABCG2) was 2.1 fold.

For `O=C(c1ccoc1)N1CCN(c2cc(-c3ccccc3)nc3cc(-c4cccc(Cl)c4)nn23)CC1` [Compound 11], the “∼Fold G2 Selective” value (ABCG2) was 7 fold and 7.2 fold.

With `O=C(c1ccsc1)N1CCN(c2cc(-c3ccccc3)nc3cc(-c4cccc(Cl)c4)nn23)CC1` [Compound 12] the “∼Fold G2 Selective” value (ABCG2) was 2.8 fold.

In the case of `O=C(c1ccccc1)N1CCN(c2cc(-c3ccccc3)nc3cc(-c4cccc(Cl)c4)nn23)CC1` [Compound 13], the “∼Fold G2 Selective” value (ABCG2) was 2.4 fold.

In the case of `COc1ccccc1C(=O)N1CCN(c2cc(-c3ccccc3)nc3cc(-c4cccc(Cl)c4)nn23)CC1` [Compound 14], the “∼Fold G2 Selective” value (ABCG2) was 1.0 fold.

For `COc1cccc(C(=O)N2CCN(c3cc(-c4ccccc4)nc4cc(-c5cccc(Cl)c5)nn34)CC2)c1` [Compound 15], the “∼Fold G2 Selective” value (ABCG2) was 0.6 fold, the “ABCB1 TD50” value (Jurkat-DNR cells) was >100 µM and the “ABCG2 TD50” value (Ig-MXP3 cells) was >100 µM.

In the case of `COc1ccc(C(=O)N2CCN(c3cc(-c4ccccc4)nc4cc(-c5cccc(Cl)c5)nn34)CC2)cc1` [Compound 16], the “∼Fold G2 Selective” value (ABCG2) was 1.0 fold.

In the case of `O=C(c1ccccc1Cl)N1CCN(c2cc(-c3ccccc3)nc3cc(-c4cccc(Cl)c4)nn23)CC1` [Compound 17], the “∼Fold G2 Selective” value (ABCG2) was 1.4 fold.

With `O=C(c1cccc(Cl)c1)N1CCN(c2cc(-c3ccccc3)nc3cc(-c4cccc(Cl)c4)nn23)CC1` [Compound 18] the “∼Fold G2 Selective” value (ABCG2) was 1.4 fold.

`O=C(c1ccc(Cl)cc1)N1CCN(c2cc(-c3ccccc3)nc3cc(-c4cccc(Cl)c4)nn23)CC1` [Compound 19] was tested, and the “∼Fold G2 Selective” value (ABCG2) was 0.9 fold.

In the case of `O=C(c1cccnc1)N1CCN(c2cc(-c3ccccc3)nc3cc(-c4cccc(Cl)c4)nn23)CC1` [Compound 20], the “∼Fold G2 Selective” value (ABCG2) was 2.5 fold, the “ABCB1 TD50” value (Jurkat-DNR cells) was 4.72 µM and the “ABCG2 TD50” value (Ig-MXP3 cells) was 10.30 µM.

`O=C(c1ccncc1)N1CCN(c2cc(-c3ccccc3)nc3cc(-c4cccc(Cl)c4)nn23)CC1` [Compound 21] was tested, and the “∼Fold G2 Selective” value (ABCG2) was 1.1 fold, the “ABCB1 TD50” value (Jurkat-DNR cells) was 10.90 µM and the “ABCG2 TD50” value (Ig-MXP3 cells) was 28.30 µM.

For `O=C(C1CCCCC1)N1CCN(c2cc(-c3ccccc3)nc3cc(-c4cccc(Cl)c4)nn23)CC1` [Compound 22], the “∼Fold G2 Selective” value (ABCG2) was 1.2 fold.

In the case of `CC(=O)N1CCN(c2cc(-c3ccccc3)nc3cc(-c4cccc(Cl)c4)nn23)CC1` [Compound 23], the “∼Fold G2 Selective” value (ABCG2) was 0.9 fold.

`O=C(c1ccoc1)N1CCN(c2cc(-c3ccccc3F)nc3cc(-c4cccc(Cl)c4)nn23)CC1` [Compound 26] was tested, and the “∼Fold G2 Selective” value (ABCG2) was 2.4 fold.

In the case of `O=C(c1ccoc1)N1CCN(c2cc(-c3ccc(F)cc3)nc3cc(-c4cccc(Cl)c4)nn23)CC1` [Compound 27], the “∼Fold G2 Selective” value (ABCG2) was 2.3 fold.

For `COc1cccc(-c2cc(N3CCN(C(=O)c4ccoc4)CC3)n3nc(-c4cccc(Cl)c4)cc3n2)c1` [Compound 28], the “∼Fold G2 Selective” value (ABCG2) was 1.9 fold.

`COc1ccc(-c2cc(N3CCN(C(=O)c4ccoc4)CC3)n3nc(-c4cccc(Cl)c4)cc3n2)cc1` [Compound 29] was tested, and the “∼Fold G2 Selective” value (ABCG2) was 2.4 fold.

For `C#Cc1cc(N2CCN(C(=O)c3ccoc3)CC2)n2nc(-c3cccc(Cl)c3)cc2n1` [Compound 32], the “∼Fold G2 Selective” value (ABCG2) was 4.3 fold.

`O=C(c1ccoc1)N1CCN(c2cc(-c3ccccc3)nc3cc(-c4ccc(Br)cc4)nn23)CC1` [Compound 33] was tested, and the “∼Fold G2 Selective” value (ABCG2) was 1.7 fold.

With `COc1cccc(-c2cc3nc(-c4ccccc4)cc(N4CCN(C(=O)c5ccoc5)CC4)n3n2)c1` [Compound 35] the “∼Fold G2 Selective” value (ABCG2) was 2.0 fold.

For `COc1ccccc1-c1cc2nc(-c3ccccc3)cc(N3CCN(C(=O)c4ccco4)CC3)n2n1` [Compound 37], the “∼Fold G2 Selective” value (ABCG2) was 2.9 fold.

With `COc1cccc(-c2cc3nc(-c4ccccc4)cc(N4CCN(C(=O)c5ccco5)CC4)n3n2)c1` [Compound 38] the “∼Fold G2 Selective” value (ABCG2) was 3.4 fold.

With `CCCN(CCc1ccccc1)C(=O)[C@@H]1OC(C(=O)O)=C[C@H](O)[C@H]1NC(C)=O` [Compound 39] the “∼Fold G2 Selective” value (ABCG2) was 2.7 fold.

For `Cc1cccc(-c2cc3nc(-c4ccccc4)cc(N4CCN(C(=O)c5ccco5)CC4)n3n2)c1` [Compound 40], the “∼Fold G2 Selective” value (ABCG2) was 1.6 fold.

For `COc1ccccc1-c1cc2nc(-c3ccccc3)cc(N3CCN(C(=O)c4ccccc4)CC3)n2n1` [Compound 41], the “∼Fold G2 Selective” value (ABCG2) was 3.0 fold.

`O=C(c1ccccc1)N1CCN(c2cc(-c3ccccc3)nc3cc(-c4cccc(F)c4)nn23)CC1` [Compound 42] was tested, and the “∼Fold G2 Selective” value (ABCG2) was 1.9 fold.

`O=C(c1ccccc1)N1CCN(c2cc(-c3ccccc3)nc3cc(-c4ccc(F)cc4)nn23)CC1` [Compound 43] was tested, and the “∼Fold G2 Selective” value (ABCG2) was 2.0 fold.

With `COc1ccc(-c2cc(N3CCN(C(=O)c4ccoc4)CC3)n3nc(-c4ccccc4)cc3n2)cc1` [Compound 45] the “∼Fold G2 Selective” value (ABCG2) was 1.9 fold.

For `O=C(c1ccoc1)N1CCN(c2cc(-c3ccccc3F)nc3cc(-c4ccccc4)nn23)CC1` [Compound 46], the “∼Fold G2 Selective” value (ABCG2) was 10.0 fold.

For `O=C(c1ccoc1)N1CCN(c2cc(-c3cccc(F)c3)nc3cc(-c4ccccc4)nn23)CC1` [Compound 47], the “∼Fold G2 Selective” value (ABCG2) was 4.2 fold.

In the case of `O=C(c1ccoc1)N1CCN(c2cc(-c3ccc(F)cc3)nc3cc(-c4ccccc4)nn23)CC1` [Compound 48], the “∼Fold G2 Selective” value (ABCG2) was 1.8 fold.

In the case of `CC(C)(C)c1cc(N2CCN(C(=O)c3ccoc3)CC2)n2nc(-c3ccccc3)cc2n1` [Compound 49], the “∼Fold G2 Selective” value (ABCG2) was 0.5 fold.

In the case of `O=C(c1ccoc1)N1CCN(c2cc(-c3ccco3)nc3cc(-c4ccco4)nn23)CC1` [Compound 52], the “ABCB1 TD50” value (Jurkat-DNR cells) was 1.93 µM and the “ABCG2 TD50” value (Ig-MXP3 cells) was >100 µM.

For `O=C(c1ccoc1)N1CCN(c2cc(-c3ccco3)nc3cc(-c4cccc(Cl)c4)nn23)CC1` [Compound 53], the “ABCB1 TD50” value (Jurkat-DNR cells) was 8.53 µM and the “ABCG2 TD50” value (Ig-MXP3 cells) was 10.80 µM.

In the case of `COc1cccc(-c2cc3nc(-c4ccco4)cc(N4CCN(C(=O)c5ccoc5)CC4)n3n2)c1` [Compound 56], the “ABCB1 TD50” value (Jurkat-DNR cells) was 5.52 µM and the “ABCG2 TD50” value (Ig-MXP3 cells) was >100 µM.

`COc1ccc(-c2cc3nc(-c4ccco4)cc(N4CCN(C(=O)c5ccoc5)CC4)n3n2)cc1` [Compound 57] was tested, and the “ABCB1 TD50” value (Jurkat-DNR cells) was >100 µM and the “ABCG2 TD50” value (Ig-MXP3 cells) was >100 µM.

`O=C(c1ccoc1)N1CCN(c2cc(-c3ccoc3)nc3cc(-c4ccccc4)nn23)CC1` [Compound 61] was tested, and the “ABCB1 TD50” value (Jurkat-DNR cells) was 7.33 µM and the “ABCG2 TD50” value (Ig-MXP3 cells) was 18.30 µM.

For `CC(=O)N1CCN(c2cc(-c3ccco3)nc3cc(-c4ccccc4)nn23)CC1` [Compound 74], the “ABCB1 TD50” value (Jurkat-DNR cells) was 10.10 µM and the “ABCG2 TD50” value (Ig-MXP3 cells) was >100 µM.

For `CC(=O)N1CCN(c2cc(-c3ccco3)nc3cc(-c4cccc(Cl)c4)nn23)CC1` [Compound 87], the “ABCB1 TD50” value (Jurkat-DNR cells) was 17.60 µM and the “ABCG2 TD50” value (Ig-MXP3 cells) was >100 µM.

With `COc1cccc(-c2cc3nc(-c4ccco4)cc(N4CCN(C(C)=O)CC4)n3n2)c1` [Compound 88] the “ABCB1 TD50” value (Jurkat-DNR cells) was 49.30 µM and the “ABCG2 TD50” value (Ig-MXP3 cells) was >100 µM.

With XR9051 [Compound 2, reference compound] the “ABCB1 TD50” value (Jurkat-DNR cells) was 1.97 µM and the “ABCG2 TD50” value (Ig-MXP3 cells) was 21.40 µM.
